Reference: US11963959B2, “Inhibitors for coronavirus” (Southwest Research Institute, priority 2021, dated 2024)
Read-outs that look alike come from different tables or passages of the source.

Tests used:
in vitro = conditions: African green monkey
[1] = test system: SARS-CoV-2 (USA-WA1/2020); assay: microbe, parasite or virus in culture; type: cell-based; conditions: for EC50 / EC90: Severe acute respiratory syndrome coronavirus 2, Vero C1008; for SI: selectivity index=CC50/EC50
[2] = PK studies in mice, subcutaneous twice-a-day dosing, plasma and lung; type: in vivo; design: Tmax: unit not given here; conditions: for AUC / Cmax / half-life: mouse, sc
Description: In addition to the above, pharmokinetic (PK) studies have been completed on additional representative compounds of the pyyroloquinazolines noted herein. More specifically, pharmokinetic studies were conducted for Compound 8, 7-(2-(fluorobenzyl)-7H-pyrrolo[3,2-f]quinazoline-1,3-diamine having the following structure:
(§1) Reference is therefore made to FIG. 8 which provides the animal (mice) compound concentration versus time plots in blood plasma for dosing of Compound 8 at 10 mg/kg, subcutaneous, twice-a-day, at time points 0, 0.5, 1, 2, 4, 8, 12 hours post dose up to 36 hours. FIG. 9 provides the animal (mice) compound concentration versus time plots also for Compound 8 in the lung at 10 mg/kg, subcutaneous, twice-a-day, at time points 0, 0.5, 1, 2, 4, 8, 12 post dose up to 36 hours.
as §1, with “FIG. 10” for “FIG. 8”, “Compound 9” for “Compound 8”, “at 25” for “at 10”, “FIG. 11” for “FIG. 9”
(§2) Reference is made to FIG. 12 which provides the animal (mice) compound concentration versus time plots in blood plasma for dosing of Compound 10 at 25 mg/kg, subcutaneous, twice-a-day, at time points 0, 0.5, 1, 2, 4, 8, 12 hours post dose up to 36 hours. FIG. 13 provides the animal (mice) compound concentration versus time plots also for Compound 10 in the lung at 25 mg/kg, subcutaneous, twice-a-day, at time points 0, 0.5, 1, 2, 4, 8, 12 hours post dose up to 36 hours.
Reference is made to FIG. 14 which provides the animal (mice) compound concentration versus time plots in blood plasma for dosing of Compound 11 at 25 mg/kg, subcutaneous, twice-a-day, at time points 0, 0.5, 1, 2, 4, 8, 12 hours post dose up to 36 hours. FIG. 15 provides the animal (mice) compound concentration versus time plots also for Compound 11 in the lung at 25 mg/kg, subcutaneous, twice-a-day, at time points 0, 0.5, 1, 2, 4, 8, 12 hours post does up to 36 hours.
as §2, with “FIG. 16” for “FIG. 12”, “Compound 12 at” for “Compound”, “10” for “10 at 25”, “FIG. 17” for “FIG. 13”, “Compound 12” for “Compound 10”, “at 10” for “at 25”

[3] = Table 1, SARS-CoV-2 strain, VeroE6, two biological replicates and 8 technical replicates, read-out: EC50
[4] = Table 1, SARS-CoV-2 strain, VeroE6, two biological replicates and 8 technical replicates, read-out: EC90
[5] = Table 2, SARS-CoV-2 strain, VeroE6, read-out: EC50
[6] = Table 2, SARS-CoV-2 strain, VeroE6, read-out: EC90
[7] = 10 mg/kg subcutaneous twice-a-day
[8] = lung, 10 mg/kg subcutaneous twice-a-day
[9] = plasma, 10 mg/kg subcutaneous twice-a-day
[10] = Table 7, SARS-CoV-2 strain, VeroE6, read-out: EC50
[11] = Table 7, SARS-CoV-2 strain, VeroE6, read-out: EC90
[12] = footnote of PK table, read-out: EC50
[13] = footnote of PK table, read-out: EC90
[14] = 25 mg/kg subcutaneous twice-a-day
[15] = lung, 25 mg/kg subcutaneous twice-a-day
[16] = plasma, 25 mg/kg subcutaneous twice-a-day

## Nc1nc(N)c2c(ccc3c2ccn3Cc2ccccc2C(F)(F)F)n1 [Compound 1, 7-(2-(trifluoromethyl)benzyl)-7H-pyrrolo[3,2-f]quinazoline-1,3-diamine]
In vitro
  CC50: 2000 ± 250 nM
[1]
  EC50: 30 ± 10 nM
  EC90: 70 ± 30 nM
[1]; Table 1
  SI: 66.8

## Cc1ccccc1Cn1ccc2c3c(N)nc(N)nc3ccc21 [Compound 2, 7-(2-methylbenzyl)-7H-pyrrolo[3,2-f]quinazoline-1,3-diamine]
In vitro
  CC50: 4940 ± 550 nM
[1]; [3]
  EC50: 20 ± 4 nM
[1]; [4]
  EC90: 32 ± 50 nM
[1]; Table 1
  SI: 245

## Cc1cc2c3c(N)nc(N)nc3ccc2n1Cc1ccc(C#N)cc1 [Compound 3, 4-((1,3-diamino-8-methyl-7H-pyrrolo[3,2-f]quinazolin-7-yl)methyl)benzonitrile]
In vitro
  CC50: 6410 ± 700 nM
[1]; [3]
  EC50: 13 ± 5 nM
[1]; [4]
  EC90: 30 ± 20 nM
[1]; Table 1
  SI: 477.3

## C=CCn1ccc2c3c(N)nc(N)nc3ccc21 [Compound 4, 7-allyl-7H-pyrrolo[3,2-f]quinazoline-1,3-diamine]
In vitro
  CC50: > 30000 nM
[1]; [3]
  EC50: 470 ± 210 nM
[1]; [4]
  EC90: 850 ± 460 nM
[1]; Table 1
  SI: >63.8

## O=C(c1sc(-c2ccccc2)nc1-c1ccccc1)N1C[C@H]2CNC[C@H]2C1 [Compound 5, (2,4-diphenylthiazol-5-yl)((3aR,6aS)-hexahydropyrrolo[3,4-c]pyrrol-2(1H)-yl)methanone]
In vitro
  CC50: 79700 nM
[1]; [5]
  EC50: 8300 nM
[1]; [6]
  EC90: 75000 nM
[1]; Table 2
  SI: 9.6

## O=C(c1sc(-c2ccccc2)nc1-c1ccc(Cl)cc1)N1C[C@H]2CNC[C@H]2C1 [Compound 6, (4-(4-chlorophenyl)-2-phenylthiazol-5-yl)((3aR,6aS)-hexahydropyrrolo[3,4-c]pyrrol-2(1H)-yl)methanone]
In vitro
  CC50: 17100 nM
[1]; [5]
  EC50: 4200 nM
[1]; [6]
  EC90: 13300 nM
[1]; Table 2
  SI: >4.0

## O=C(c1sc(-c2ccc(Cl)cc2)nc1-c1ccccc1)N1C[C@H]2CNC[C@H]2C1 [Compound 7, (2-(4-chlorophenyl)-4-phenylthiazol-5-yl)((3aR,6aS)-hexahydropyrrolo[3,4-c]pyrrol-2(1H)-yl)methanone]
In vitro
  CC50: 11000 nM
[1]; [5]
  EC50: 4700 nM
[1]; [6]
  EC90: 7960 nM
[1]; Table 2
  SI: 2.3

## Nc1nc(N)c2c(ccc3c2ccn3Cc2ccccc2F)n1 [Compound 8]
In vitro
  CC50: 4890 ± 4700 nM
[2]; [7]
  tolerability: relatively well-tolerated
[2]; [8]
  Time > EC90: 98.3%
  Tmax: 98.3
  AUC: 13000 ng·h/mL
  Cmax: 4140 ng/mL
  half-life: 3.74 h
[2]; [9]
  AUC: 2140 ng·h/mL
  Cmax: 675 ng/mL
  half-life: 3.1 h
  Time > EC90: 65%
  Tmax: 1.4
[1]; [10]
  EC50: 50 ± 31 nM
[1]; [11]
  EC90: 160 ± 142 nM
[1]; [12]
  EC50: 0.0246 µg/mL
[1]; [13]
  EC90: 0.0799 µg/mL
[1]; Table 7
  SI: 98

## Nc1nc(N)c2c(ccc3c2ccn3Cc2cccnc2)n1 [Compound 9, 7-(pyridin-3-ylmethyl)-7H-pyrrolo[3,2-f]quinazoline-1,3-diamine]
In vitro
  CC50: > 30000 nM
[2]; [14]
  tolerability: relatively well-tolerated
[2]; [15]
  Time > EC90: 73%
  Tmax: 1.9
  AUC: 12400 ng·h/mL
  Cmax: 3320 ng/mL
  half-life: 2.8 h
[2]; [16]
  AUC: 1190 ng·h/mL
  Cmax: 365 ng/mL
  half-life: 2.1 h
  Time > EC90: 55%
  Tmax: 1.6
[1]; [10]
  EC50: 160 ± 61 nM
[1]; [11]
  EC90: 360 ± 193 nM
[1]; [12]
  EC50: 0.058 µg/mL
[1]; [13]
  EC90: 0.142 µg/mL
[1]; Table 7
  SI: >187

## Nc1nc(N)c2c(ccc3c2ccn3Cc2ccncc2)n1 [Compound 10, 7-(pyridin-4-ylmethyl)-7H-pyrrolo[3,2-f]quinazoline-1,3-diamine]
In vitro
  CC50: > 30000 nM
[2]; [14]
  tolerability: relatively well-tolerated
[2]; [15]
  Time > EC90: 63%
  Tmax: 1.2
  AUC: 7820 ng·h/mL
  Cmax: 2910 ng/mL
  half-life: 2.7 h
[2]; [16]
  AUC: 1600 ng·h/mL
  Cmax: 678 ng/mL
  half-life: 2.1 h
  Time > EC90: 44%
  Tmax: 1.2
[1]; [10]
  EC50: 80 ± 12 nM
[1]; [11]
  EC90: 240 ± 110 nM
[1]; [12]
  EC50: 0.0813 µg/mL
[1]; [13]
  EC90: 0.221 µg/mL
[1]; Table 7
  SI: >375

## Nc1nc(N)c2c(ccc3c2ccn3Cc2ccccn2)n1 [Compound 11, 7-(pyridin-2-ylmethyl)-7H-pyrrolo[3,2-f]quinazoline-1,3-diamine]
In vitro
  CC50: 15500 ± 10600 nM
[2]; [14]
  tolerability: relatively well-tolerated
[2]; [15]
  Time > EC90: 85%
  Tmax: 1.28
  AUC: 14600 ng·h/mL
  Cmax: 3270 ng/mL
  half-life: 3.3 h
[2]; [16]
  AUC: 1170 ng·h/mL
  Cmax: 348 ng/mL
  half-life: 2.6 h
  Time > EC90: 45%
  Tmax: 1.6
[1]; [10]
  EC50: 120 ± 50 nM
[1]; [11]
  EC90: 360 ± 230 nM
[1]; [12]
  EC50: 0.0435 µg/mL
[1]; [13]
  EC90: 0.142 µg/mL
[1]; Table 7
  SI: 128

## Nc1nc(N)c2c(ccc3c2ccn3CC2CCCCC2)n1 [Compound 12, 7-(cyclohexylmethyl)-7H-pyrrolo[3,2-f]quinazoline-1,3-diamine]
In vitro
  CC50: 4910 ± 200 nM
[2]; [7]
  tolerability: relatively well-tolerated
[2]; [8]
  Time > EC90: 100%
  Tmax: 1.4
  AUC: 34100 ng·h/mL
  Cmax: 10100 ng/mL
  half-life: 3.1 h
[2]; [9]
  AUC: 968 ng·h/mL
  Cmax: 348 ng/mL
  half-life: 4.2 h
  Time > EC90: 64%
  Tmax: 1.4
[1]; [10]
  EC50: 120 ± 87 nM
[1]; [11]
  EC90: 320 ± 320 nM
[1]; [12]
  EC50: 0.0177 µg/mL
[1]; [13]
  EC90: 0.0325 µg/mL
[1]; Table 7
  SI: 41
